Columns and labels:
[1] = In vitro dissolution, USP Type II apparatus, simulated gastric fluid pH 1.2 without enzymes; format: physicochemical; details: itraconazole 100 mg, 900 ml simulated gastric fluid pH 1.2, 100 rpm, 37°C
Protocol: The dissolution profile of pure itraconazole was compared to the dissolution profile itraconazole from the free-flowing powder formulation that was made by the process described in Example 3. The amount of free flowing powder formulation used in the dissolution studies was equivalent to amount of the formulation containing 100 mg of itraconazole. The amount of pure itraconazole used as a control in the studies was also 100 mg. […] The analysis was performed using a USP Type II dissolution apparatus with the paddle speed and temperature maintained at 100 rpm and 37±0.5° C. Three ml aliquots were removed at 10, 20, 30, 45 and 60 minute intervals. Subsequently, the amount of itraconazole in each of the aliquots was determined by using an HP Agilent® 1100 series HPLC system (Agilent Technologies, Inc., Santa Clara, Calif.). The mobile phase solution used in the HPLC system consisted of 65% acetonitrile and 35% 10 mM potassium dihydrogen phosphate. The solution was pumped through a Phenomenex® Luna 5 μm C-18 (dimension: 150 mm×4.6 mm) column (Phenomenex Corp., Torrance Calif.) at a flow rate of 1.3 ml/min. Itraconazole was detected at a wavelength of 263 nm. […] Subsequently, the amount of itraconazole in each of the aliquots was determined by using an HP Agilent® 1100 series HPLC system (Agilent Technologies, Inc., Santa Clara, Calif.). […] Itraconazole was detected at a wavelength of 263 nm. […]

[2] = In vivo pharmacokinetic analysis after oral administration to jugular vein-cannulated rats; details: fenofibrate 145 mg/70 kg, plasma fenofibric acid
Protocol: The study was performed on jugular vein-cannulated rats weighing from 200 to 250 gm (n=4). […] Blood samples were collected at various time intervals over a 48 hour period after administration. The samples were collected into heparinized tubes through the jugular vein cannulation, centrifuged at 5000 rpm for 5 minutes. Each 50 μl plasma sample was treated with 10 μl of 50% methanol and 10 μl of an internal standard (Indomethacin), and then mixed by vortexing for 30 seconds. To that mixture, 200 μl of acetonitrile was added, followed by one minute of vortexing, centrifugation at 14,000 rpm for five minutes. […] Indomethacin was used as an internal standard for the LCMS analyis. Standard non-compartmental pharmacokinetic parameters were calculated. Briefly, noncompartmental pharmacokinetic analysis is dependent on estimation of total drug exposure. Total drug exposure is most often estimated by area under the curve (AUC) using the trapezoidal rule (numerical integration) method. Due to the dependence on the length of ‘x’ in the trapezoidal rule, the area estimation is dependent on the blood/plasma sampling schedule. That is, the closer time points are, the closer the trapezoids reflect the actual shape of the concentration-time curve.

CCC(C)n1ncn(-c2ccc(N3CCN(c4ccc(OCC5COC(Cn6cncn6)(c6ccc(Cl)cc6Cl)O5)cc4)CC3)cc2)c1=O (centres unmarked) [pure drug, itraconazole]
drug release in 10 min [1]: less than 1%
AUMC0-t [2]: 436.7 µg·h/mL
CL [2]: 0.07 L/h
Cmax [2]: 7200 ng/mL
MRT (mean residence time) [2]: 9.15 h
t1/2 [2]: 7.18 h
tmax [2]: 2.5 h
AUC0-t (AUC0-48) ([2]; over 48 hours): 51 µg·h/mL
